Results reported in paper PMC6523505, “Inhibition of Oncogenic Kinases: An In Vitro Validated Computational Approach Identified Potential Multi-Target Anticancer Compounds” (Biomolecules, 2019).

What was measured:
cannabinoid CB1 receptor = target: cannabinoid CB1 receptor; parameters: method as in PMID 17027269; settings: cited from earlier work
[1] = test system: HeLa (human epithelial cervical cancer) cell line; assay: MTT cytotoxicity assay; type: cell-based; settings: after 48 h of treatment, mean ± S.D
Source text: (§1) HeLa (human epithelial cervical cancer, ATCC CCL-2), HepG2 (human epithelial liver cancer, ATCC HB-8065) and Vero (monkey epithelial kidney […], ATCC CCL-81) cell lines were used to examine the selected virtual hit compounds’ anti-cancer activity. All cell lines were generously provided by the late Prof. Dr. M.H. Qazi, University of Lahore, Lahore, Pakistan. The test compounds were purchased via MolPort and cisplatin from Pharmedic (Pvt) Ltd., Lahore, Pakistan. Cell culture media, fetal calf serum (FCS), MTT (3-[[…]]-2,5-diphenyltetrazolium bromide), DMSO, antibiotic/antimycotic and Supplementary Materials were purchased from Thermo Fisher Scientific, Inc, (Waltham, MA, USA).
(§2) Cells were harvested at 80% confluence by treating the medium-free monolayer with trypsin-EDTA. Cell counts were performed with a hemocytometer, and cell viability was determined with trypan blue. The cell suspension was adjusted to a final concentration of […] in DMEM (Dulbecco’s modified Eagle medium) with 10% FCS. Cells were dispensed to tissue culture grade 96-well plates, with each microwell receiving 100 µL, i.e., 7000 cells per microwell. The plate was incubated at 37 °C for 12 h in 5% CO2 incubator. Stock solutions (10 mM) of the test compounds and positive control were prepared in DMSO. Test concentrations were prepared by diluting the stocks with the growth media. Test compound solutions were diluted from 100 µL to a final well volume of 200 µL. MTT reagent was prepared in phosphate-buffered saline (PBS) in a concentration of 5 mg/mL. After 48 h, 25 µL of MTT reagent was added to each microwell, followed by incubation for 5 h. MTT is reduced by metabolically active cells to insoluble purple formazan crystals by mitochondrial enzymes. The reduction of MTT is primarily due to glycolytic activity within the cell, and is dependent upon the presence of NADH and NADPH. The entire contents of each microwell were carefully pipetted out without disturbing the cells on the well floor. In order to solubilize the formazan crystals, 100 µL of DMSO was dispensed to each well. The absorbance was measured with the help of a Bio Rad PR 4100 microplate reader at a wavelength of 570 nm. Serial dilutions of cisplatin were used as a positive control, while the negative controls contained only the reagent, but not any drug. Percentage viability was calculated and dose–response curves were plotted using the percentage viability against the drug/test compound concentration (µM). Results represent mean ±SD of six readings: three determinations of two independent experiments.
(§3) These four compounds were subsequently tested for their cytotoxic effect on different cell lines. Cell viability assays on cancer cell lines HeLa and HepG2 and non-cancerous Vero cell line were performed using the lead compounds (Z21, Z88, F34, AF3) with doses ranging from 50 to 400 µM. Cisplatin was used as a positive control at dose levels of 1 µM, 10 µM, and 20 µM. Dose–response curves of all four inhibitors against the three cell lines show the moderate sensitivity of all cell line toward these inhibitors (Figure 6).

[2] = test system: Vero (monkey epithelial kidney) cell line; assay: MTT cytotoxicity assay; type: cell-based; settings: after 48 h of treatment, mean ± S.D
Source text: as §1, §2, §3

[3] = test system: HepG2 (human epithelial liver cancer) cell line; assay: MTT cytotoxicity assay; type: cell-based; settings: after 48 h of treatment, mean ± S.D
Source text: as §1, §2, §3

[4] = test system: BCR-ABL, SRC, KIT, PDGFR, EPH, CSK; settings: FDA-approved kinase inhibitor, against tested cell lines, no reference given; cited from earlier work
[5] = test system: TIE2, PDGFR, RET, KIT, B-RAF; settings: FDA-approved kinase inhibitor, against tested cell lines, no reference given; cited from earlier work
[6] = test system: EGFR, VEGFR, RET, Tie-2, FGFR1; settings: FDA-approved kinase inhibitor, against tested cell lines, no reference given; cited from earlier work
[7] = test system: VEGF, RET, MET, NTRKB, TIE2, AXL; settings: FDA-approved kinase inhibitor, against tested cell lines, no reference given; cited from earlier work
[8] = test system: BCR-ABL, KIT, LCK, EPHA3, 8, DDR1, 2; settings: FDA-approved kinase inhibitor, against tested cell lines, no reference given; cited from earlier work
PDGFR, VEGFR = settings: FDA-approved kinase inhibitor, against tested cell lines, no reference given; cited from earlier work

O=C(Nc1ccc(Cl)c(S(=O)(=O)N2CCOCC2)c1)c1cccc2ccccc12 [N-(4-chloro-3-(morpholinosulfonyl)phenyl)-1-naphthamide]
IC50 (cannabinoid CB1 receptor): nanomolar range

Cc1ccc(NC(=O)Cn2cnc3sc(-c4nc(-c5ccccc5)no4)c(C)c3c2=O)cc1Cl [Compound F34]
IC50 [1]: 145 ± 2.06 µM
IC50 [2]: 131 ± 2.3 µM
IC50 [3]: 175.5 ± 1.66 µM

Cc1nc(Nc2ncc(C(=O)Nc3c(C)cccc3Cl)s2)cc(N2CCN(CCO)CC2)n1 [dasatinib]
IC50 [4]: < 0.01 µM

O=C(CCn1[nH]c(=O)c2ccccc2c1=O)N1CCCC1c1ccc2c(c1)OCCO2 (stereo not shown) [Compound Z88]
IC50 [1]: 218.7 ± 2.04 µM
IC50 [2]: 204.8 ± 1.78 µM
IC50 [3]: 222.1 ± 1.68 µM

O=S(=O)(c1cccc(NCc2cccc3ccccc23)c1)N1CCOCC1 [Compound Z21]
IC50 [1]: 231 ± 2.35 µM
IC50 [2]: 250.2 ± 2.34 µM
IC50 [3]: 246 ± 1.93 µM

COc1cc2nccc(Oc3ccc(NC(=O)C4(C(=O)Nc5ccc(F)cc5)CC4)cc3)c2cc1OC [cabozantinib]
IC50 [7]: < 0.015 µM

COc1ccc(C(=O)Oc2ccc3c(=O)c(Oc4ccc5ccccc5c4)coc3c2)cc1 [AF3]
IC50 [1]: 176 ± 2.12 µM
IC50 [2]: 209 ± 2.43 µM
IC50 [3]: 188 ± 2.31 µM

N.N.[Cl][Pt][Cl] [Cisplatin, cisplatin, reference compound]
IC50 [1]: 6.02 ± 1.59 µM
IC50 [2]: 7.99 ± 2.38 µM
IC50 [3]: 6.41 ± 1.54 µM
